Tests used:
human TLR9 = target: T1, human TLR9 (Homo sapiens, UniProt Q9NR96); test: TLR9 inhibition reporter assay (HEK-Blue SEAP reporter); type: cell-based; settings: HEK-Blue cells overexpressing human TLR9; ODN2006 5 nM; 22 hour incubation
T1 construct: host or cells: HEK-Blue cells
T1 sequence (Q9NR96 26-1032): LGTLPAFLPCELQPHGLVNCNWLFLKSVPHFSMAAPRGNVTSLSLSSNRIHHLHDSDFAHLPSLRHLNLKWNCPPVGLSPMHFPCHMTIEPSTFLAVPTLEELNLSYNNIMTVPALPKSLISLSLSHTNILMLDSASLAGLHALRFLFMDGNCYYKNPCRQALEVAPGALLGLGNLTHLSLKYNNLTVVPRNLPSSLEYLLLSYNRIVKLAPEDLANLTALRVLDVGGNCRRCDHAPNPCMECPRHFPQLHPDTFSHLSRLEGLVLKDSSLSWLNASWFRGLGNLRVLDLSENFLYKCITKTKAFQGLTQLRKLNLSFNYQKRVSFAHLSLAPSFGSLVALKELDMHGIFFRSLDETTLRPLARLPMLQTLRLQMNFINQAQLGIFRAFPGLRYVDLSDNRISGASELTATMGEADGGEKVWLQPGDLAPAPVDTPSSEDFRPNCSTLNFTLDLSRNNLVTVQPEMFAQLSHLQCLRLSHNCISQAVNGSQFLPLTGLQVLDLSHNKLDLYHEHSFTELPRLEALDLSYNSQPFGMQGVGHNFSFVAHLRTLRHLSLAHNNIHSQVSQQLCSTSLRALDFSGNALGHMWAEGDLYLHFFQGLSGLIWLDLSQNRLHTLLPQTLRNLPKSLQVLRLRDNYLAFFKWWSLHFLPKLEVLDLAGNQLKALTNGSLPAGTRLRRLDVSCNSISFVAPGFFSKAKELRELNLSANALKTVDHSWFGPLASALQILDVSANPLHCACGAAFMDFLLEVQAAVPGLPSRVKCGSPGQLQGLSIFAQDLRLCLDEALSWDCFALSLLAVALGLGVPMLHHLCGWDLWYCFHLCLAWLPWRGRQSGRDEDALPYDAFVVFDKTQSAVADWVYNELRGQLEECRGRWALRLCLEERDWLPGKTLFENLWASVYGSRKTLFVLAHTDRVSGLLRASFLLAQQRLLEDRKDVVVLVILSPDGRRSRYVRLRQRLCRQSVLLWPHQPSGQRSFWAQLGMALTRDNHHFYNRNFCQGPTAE
Protocol: (§1) TLR7/8/9 Inhibition Reporter Assays
(§2) HEK-Blue™-cells (Invivogen) overexpressing human TLR7, TLR8 or TLR9 receptors were used for screening inhibitors of these receptors using an inducible SEAP (secreted embryonic alkaline phosphatase) reporter gene under the control of the IFN-β minimal promoter fused to five NF-κB and AP-1-binding sites. Briefly, cells are seeded into Greiner 384 well plates (15000 cells per well for TLR7, 20,000 for TLR8 and 25,000 for TLR9) and then treated with test compounds in DMSO to yield a final dose response concentration range of 0.05 nM-50 μM. After a 30 minute compound pre-treatment at room temperature, the cells are then stimulated with a TLR7 ligand (gardiquimod at a final concentration of 7.5 μM), TLR8 ligand (R848 at a final concentration of 15.9 μM) or TLR9 ligand (ODN2006 at a final concentration of 5 nM) to activate NF-κB and AP-1 which induce the production of SEAP. After a 22 hour incubation at 37° C., 5% CO2, SEAP levels are determined with the addition of HEK-Blue™ Detection reagent (Invivogen), a cell culture medium that allows for detection of SEAP, according to manufacturer's specifications. The percent inhibition is determined as the % reduction in the HEK-Blue signal present in wells treated with agonist plus DMSO alone compared to wells treated with a known inhibitor.

human TLR7 = target: T2, human TLR7 (Homo sapiens, UniProt Q9NYK1); test: TLR7 inhibition reporter assay (HEK-Blue SEAP reporter); type: cell-based; settings: HEK-Blue cells overexpressing human TLR7; gardiquimod 7.5 μM; 22 hour incubation
T2 construct: host or cells: HEK-Blue cells
T2 sequence (Q9NYK1 27-1049): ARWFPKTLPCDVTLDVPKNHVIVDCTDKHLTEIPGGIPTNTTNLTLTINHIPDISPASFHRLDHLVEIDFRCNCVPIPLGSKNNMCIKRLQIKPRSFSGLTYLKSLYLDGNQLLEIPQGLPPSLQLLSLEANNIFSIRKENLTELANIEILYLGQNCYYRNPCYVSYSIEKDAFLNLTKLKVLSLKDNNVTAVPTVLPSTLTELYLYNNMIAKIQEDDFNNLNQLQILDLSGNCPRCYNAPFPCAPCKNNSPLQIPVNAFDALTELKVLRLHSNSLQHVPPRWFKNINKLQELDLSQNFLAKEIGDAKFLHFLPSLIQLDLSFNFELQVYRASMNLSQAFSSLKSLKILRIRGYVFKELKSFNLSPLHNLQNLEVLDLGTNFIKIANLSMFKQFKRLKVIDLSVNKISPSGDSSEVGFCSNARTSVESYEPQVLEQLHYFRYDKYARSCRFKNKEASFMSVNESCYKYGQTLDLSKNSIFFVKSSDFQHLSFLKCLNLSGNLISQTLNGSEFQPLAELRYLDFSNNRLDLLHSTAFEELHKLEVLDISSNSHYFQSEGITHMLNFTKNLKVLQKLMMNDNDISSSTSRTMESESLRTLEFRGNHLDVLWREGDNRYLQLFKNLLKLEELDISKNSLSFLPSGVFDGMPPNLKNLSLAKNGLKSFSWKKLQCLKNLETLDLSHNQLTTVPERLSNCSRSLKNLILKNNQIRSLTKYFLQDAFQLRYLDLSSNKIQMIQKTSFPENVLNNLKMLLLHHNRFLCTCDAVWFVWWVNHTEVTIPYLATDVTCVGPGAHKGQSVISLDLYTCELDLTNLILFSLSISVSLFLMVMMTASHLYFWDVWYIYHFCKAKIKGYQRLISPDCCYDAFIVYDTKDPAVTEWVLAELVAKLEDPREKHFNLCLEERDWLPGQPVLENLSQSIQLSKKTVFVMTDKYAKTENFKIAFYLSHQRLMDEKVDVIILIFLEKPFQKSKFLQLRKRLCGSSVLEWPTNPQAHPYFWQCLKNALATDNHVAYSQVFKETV
Protocol: as §1, §2

Row | Structure (SMILES) | IC50 (human TLR9) [nM] | IC50 (human TLR7) [nM]
1 | COc1ccc(-c2[nH]c3ccc(N4CCC(C5CCN(Cc6ccsc6)CC5)CC4)cc3c2C(C)C)cc1OC [Example 98, 2-(3,4-dimethoxyphenyl)-3-isopropyl-5-(1′-(thiophen-3-ylmethyl)-[4, 4′-bipiperidin]-1-yl)-1H-indole] | 1520 | 181
2 | COc1ccc(-c2[nH]c3ccc(N4CCC(N5CCN(CCN6CCCC6)CC5)CC4)cc3c2C(C)C)cc1OC [Example 100, 2-(3,4-dimethoxyphenyl)-3-isopropyl-5-(4-(4-(2-(pyrrolidin-1-yl)ethyl)piperazin-1-yl)piperidin-1-yl)-1H-indole] | 1010 | 102
3 | COc1ccc(-c2[nH]c3ccc(N4CCC(N5CCN(Cc6ccc(C)cc6)CC5)CC4)cc3c2C(C)C)cc1OC [Example 101, 2-(3,4-dimethoxyphenyl)-3-isopropyl-5-(4-(4-(4-methylbenzyl)piperazin-1-yl)piperidin-1-yl)-1H-indole] | 1900 | 1350
4 | COc1ccc(-c2[nH]c3ccc(N4CCC(N5CCCN(C)CC5)CC4)cc3c2C(C)C)cc1OC [Example 123, 2-(3,4-dimethoxyphenyl)-3-isopropyl-5-(4-(4-methyl-1,4-diazepan-1-yl)piperidin-1-yl)-1H-indole] | 1690 | 281
5 | CCc1c(-c2ccc(OC)c(OC)c2)[nH]c2ccc(NC3CCN(C4CCN(C)CC4)CC3)cc12 [Example 125, 2-(3,4-dimethoxyphenyl)-3-ethyl-N-(1′-methyl-[1,4′-bipiperidin]-4-yl)-1H-indol-5-amine] | 758 | 376
6 | CCc1c(-c2ccc(OC)c(OC)c2)[nH]c2ccc(N3CCC(OC4CCNCC4)CC3)cc12 [Example 132, 2-(3,4-dimethoxyphenyl)-3-ethyl-5-(4-(piperidin-4-yloxy)piperidin-1-yl)-1H-indole] | 1050 | 250
7 | CCc1c(-c2ccnc(OC)c2)[nH]c2ccc(N3CCN(CCNC)CC3)cc12 [Example 137, 2-(4-(3-ethyl-2-(2-methoxypyridin-4-yl)-1H-indol-5-yl)piperazin-1-yl)-N-methylethan-1-amine] | 2960 | 70
8 | CCc1c(-c2ccc(OC)c(OC)c2)[nH]c2ccc(N3CCN(CCNC)CC3)cc12 [Example 140, 2-(4-(2-(3,4-dimethoxyphenyl)-3-ethyl-1H-indol-5-yl)piperazin-1-yl)-N-methylethan-1-amine] | 3940 | 235
9 | CCN1CCC(N2CCN(c3ccc4[nH]c(-c5ccnc6[nH]ccc56)c(C)c4c3)CC2)CC1 [Example 145, 4-(5-(4-(1-ethylpiperidin-4-yl)piperazin-1-yl)-3-methyl-1H-indol-2-yl)-1H-pyrrolo[2,3-b]pyridine] | 197 | 2460
10 | CCc1c(-c2ccnc(C)c2)[nH]c2ccc(N3CCN(C4CCN(CC(C)C)CC4)CC3)cc12 [Example 152, 3-ethyl-5-(4-(1-isobutylpiperidin-4-yl)piperazin-1-yl)-2-(2-methylpyridin-4-yl)-1H-indole] | 342 | 2220
11 | CC(C)c1c(-c2ccnc3[nH]ncc23)[nH]c2ccc(N3CCN(C4CCN(C(C)C)CC4)CC3)cc12 [Example 167, 4-(3-isopropyl-5-(4-(1-isopropylpiperidin-4-yl)piperazin-1-yl)-1H-indol-2-yl)-1H-pyrazolo[3,4-b]pyridine] | 411 | 5180
12 | CCc1c(-c2ccc(OC)c(OC)c2)[nH]c2ccc(N3CCCN(CCNC)CC3)cc12 [Example 178, 2-(4-(2-(3,4-dimethoxyphenyl)-3-ethyl-1H-indol-5-yl)-1,4-diazepan-1-yl)-N-methylethan-1-amine] | 2300 | 1040
13 | CCc1c(-c2ccc(OC)c(OC)c2)[nH]c2ccc(N3CCCN(C4CCN(C)CC4)CC3)cc12 [Example 179, 2-(3,4-dimethoxyphenyl)-3-ethyl-5-(4-(1-methylpiperidin-4-yl)-1,4-diazepan-1-yl)-1H-indole] | 1100 | 831
14 | CCc1c(-c2ccc(OC)c(OC)c2)[nH]c2ccc(N3CCCN(C4CCN(C(C)C)CC4)CC3)cc12 [Example 180, 2-(3,4-dimethoxyphenyl)-3-ethyl-5-(4-(1-isopropylpiperidin-4-yl)-1,4-diazepan-1-yl)-1H-indole] | 652 | 537
15 | CCc1c(-c2ccc(OC)c(OC)c2)[nH]c2ccc(N3CCC(OC4CCN(CC)CC4)CC3)cc12 [Example 188, 2-(3,4-dimethoxyphenyl)-3-ethyl-5-(4-((1-ethylpiperidin-4-yl)oxy)piperidin-1-yl)-1H-indole] | 986 | 161
16 | Cc1c(-c2ccnc3[nH]ccc23)[nH]c2ccc(N3CCC4(CCN(Cc5cccn5C)CC4)CC3)cc12 [Example 189, 3-((1-methyl-1H-pyrrol-2-yl)methyl)-9-(3-methyl-2-(1H-pyrrolo[2,3-b]pyridin-4-yl)-1H-indol-5-yl)-3,9-diazaspiro[5.5]undecane] | 441 | 16100
17 | CCc1c(-c2ccc(OC)c(OC)c2)[nH]c2ccc(N3CCC(OC4CCN(C5CC(C)(C)NC(C)(C)C5)CC4)CC3)cc12 [Example 193, 2-(3,4-dimethoxyphenyl)-3-ethyl-5-(4-((2′,2′,6′,6′-tetramethyl-[1,4′-bipiperidin]-4-yl)oxy)piperidin-1-yl)-1H-indole] | 546 | 81
